Biological target: Sodium- and chloride-dependent creatine transporter 1 (Homo sapiens) (UniProt P48029)
Assay: creatine transporter SLC6A8 activation, membrane depolarization – cell-based, membrane potential dye, HEK-293 JumpIN, SLC6A8 overexpression, dose response (AID 1794823)
Details: HEK-293 JumpIN SLC6A8, FLIPR membrane potential fluorescence

Sequence of Sodium- and chloride-dependent creatine transporter 1 (Homo sapiens) (P48029 whole entry, looked up): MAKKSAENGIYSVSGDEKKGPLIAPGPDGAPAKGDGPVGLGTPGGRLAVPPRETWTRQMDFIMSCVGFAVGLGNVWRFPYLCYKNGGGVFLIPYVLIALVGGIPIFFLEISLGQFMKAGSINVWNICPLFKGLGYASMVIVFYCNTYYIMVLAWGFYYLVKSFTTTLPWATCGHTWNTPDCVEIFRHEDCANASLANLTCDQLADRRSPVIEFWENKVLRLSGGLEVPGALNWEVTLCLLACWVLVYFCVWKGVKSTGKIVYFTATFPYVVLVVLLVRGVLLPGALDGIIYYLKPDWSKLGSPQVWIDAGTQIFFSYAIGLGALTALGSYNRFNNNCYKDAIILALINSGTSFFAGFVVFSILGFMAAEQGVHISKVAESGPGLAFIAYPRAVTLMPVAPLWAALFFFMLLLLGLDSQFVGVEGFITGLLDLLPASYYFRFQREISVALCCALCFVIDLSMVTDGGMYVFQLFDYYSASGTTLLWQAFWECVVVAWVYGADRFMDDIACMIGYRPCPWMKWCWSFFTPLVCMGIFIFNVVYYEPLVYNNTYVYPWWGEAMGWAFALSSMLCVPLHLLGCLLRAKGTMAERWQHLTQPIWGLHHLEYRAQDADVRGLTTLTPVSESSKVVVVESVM

CN(CC(=O)O)C(=N)N
EC50: 5 µM
